Laboratory results taken from patent US6906086B2, “Methods for inhibiting bone loss” (Eli Lilly and Company, priority 1992, dated 2005).
Entries after “also recorded” stand apart in the source; their conditions may differ. Where a name gives a salt, the structure may show the parent alone. Read-outs that look alike come from different tables or passages of the source. Each block holds one molecule with its values, some of them ahead of it.

Tests used:
[1] = tested on: ovariectomized (ovex) rats; assay: Uterine wet weight in ovariectomized rats; conditions: for % Uterine Weight Gain: relative to estrogen treated ovex animals
Method: (§1) One week after arrival, the rats underwent bilateral ovariectomy under anesthesia (44 mg/kg Ketamine and 5 mg/kg Xylazine (Butler, Indianapolis, Ind.) administered intramuscularly). Treatment with vehicle, estrogen, or a compound of formula I was initiated on the day of surgery following recovery from anesthesia. Oral dosage was by gavage in 0.5 mL of 1% carboxymethylcellulose (CMC). Body weight was determined at the time of surgery and weekly thereafter and the dosage was adjusted with changes in body weight. Vehicle or estrogen treated ovariectomized (ovex) rats and non-ovariectomized (intact) rats were evaluated in parallel with each experimental group to serve as negative and positive controls.
(§2) The rats were treated daily for 35 days (6 rats per treatment group) and sacrificed by decapitation on the 36th day. […] At the time of sacrifice, the uteri were removed, dissected free of extraneous tissue, and the fluid contents were expelled before determination of wet weight in order to confirm estrogen deficiency associated with complete ovariectomy. […] The uteri were then placed in 10% neutral buffered formalin to allow for subsequent histological analysis.

[2] = tested on: ovariectomized (ovex) rats; assay: Ovariectomized rat model of post-menopausal osteoporosis: femur density by single photon absorptiometry; assay type: in vivo, Sprague Dawley rats; conditions: for inhibition in vivo at 1 mg/kg: Rattus norvegicus, read-out: % Inhibition of Bone Loss; for prevention of bone loss (femur density), in words: oral
Method: In the examples illustrating the methods, a model of post-menopausal osteoporosis was used in which effects of different treatments upon femur density were determined.
Seventy-five day old female Sprague Dawley rats (weight range of 225 to 275 g) were obtained from Charles River Laboratories (Portage, Mich.). They were housed in groups of 3 and had ad libitum access to food (calcium content approximately 1%) and water. Room temperature was maintained at 22.2°±1.7° C. with a minimum relative humidity of 40%. The photoperiod in the room was 12 hours light and 12 hours dark.
The right femurs were excised and scanned at the distal metaphysis 1 mm from the patellar groove with single photon absorptiometry. Results of the densitometer measurements represent a calculation of bone density as a function of the bone mineral content and bone width.

[3] = tested on: ovariectomized (ovex) rats; conditions: rat, in vivo, po
Method: as §1, §2

ovariectomized rats = assay: Uterine histological parameters of estrogenicity in ovariectomized rats; conditions: for Epithelial Height / Myometrial Thickness / Stromal Eosinophils / Stromal Expansion: Table 6, ovex rats, 1 mg/kg
Method: A relatively narrow range of doses of raloxifene and tamoxifen was administered orally to ovariectomized rats as in the previous example.
Increases in epithelial height are a sign of estrogenicity of therapeutic agents and may be associated with increased incidence of uterine cancer.
Estrogenicity was also assessed by evaluating the adverse response of eosinophil infiltration into the stromal layer of the uterus (Table 6).

[4] = Oral administration to human subjects in the clinic: parent compound in serum
[5] = tested on: uterine uptake of tritiated-estradiol; assay: Laboratory animal studies: uterine uptake of tritiated-estradiol and uterotrophic response to estradiol; conditions: laboratory animals; conditions where raloxifene was extensively conjugated in plasma
Text: Experiments were undertaken to address the bioavailability issue in laboratory animals where biological activity could be assessed.

[6] = Love et al. 1992; Turner et al. 1988; cited from earlier work
[7] = ovex rats, 1 mg/kg oral, relative to estrogen treated ovex animals
[8] = Table 5, ovex rats, 1 mg/kg oral

SMILES: O=C(Oc1ccc(-c2sc3cc(OC(=O)c4ccc(F)cc4)ccc3c2C(=O)c2ccc(OCCN3CCCCC3)cc2)cc1)c1ccc(F)cc1 [Compound 2, 6-(4-Fluorobenzoyloxy)-2-[4-(4-fluorobenzoyloxy)-phenyl]-benzo[b]thien-3-yl-[4-[2-(piperidin-1-yl)ethoxy)-phenyl]-methanone Hydrochloride]
% Uterine Weight Gain ([1]; ovex rats, 1 mg/kg oral): 26% | inhibition in vivo at 1 mg/kg [2, 7]: 86%

SMILES: CC(C)(C)C(=O)Oc1ccc(-c2sc3cc(OC(=O)C(C)(C)C)ccc3c2C(=O)c2ccc(OCCN3CCCCC3)cc2)cc1.Cl [Compound 8, 6-(2,2-Dimethylpropanoyloxy)-2-[4-(2,2-dimethyl-propanoyloxy)phenyl]benzo[b]thien-3-yl-[4-[2-(piperidin-1-yl)ethoxy]phenyl]methanone Hydrochloride]
% Uterine Weight Gain ([1]; ovex rats, 1 mg/kg oral): 24% | inhibition in vivo at 1 mg/kg [2, 7]: 66%

SMILES: Cc1ccc(C(=O)Oc2ccc(-c3sc4cc(OC(=O)c5ccc(C)cc5)ccc4c3C(=O)c3ccc(OCCN4CCCCC4)cc3)cc2)cc1 [Compound 11, 6-(4-Methylbenzoyloxy)-2-[4-(4-methylbenzoyloxy)-phenyl]benzo[b]thien-3-yl[4-[2-(piperidin-1-yl)ethoxy]-phenyl]methanone Hydrochloride]
% Uterine Weight Gain ([1]; ovex rats, 1 mg/kg oral): 28% | inhibition in vivo at 1 mg/kg [2, 7]: 26%

SMILES: O=C(Oc1ccc(-c2sc3cc(OC(=O)c4ccccc4)ccc3c2C(=O)c2ccc(OCCN3CCCCC3)cc2)cc1)c1ccccc1 [Compound 12]
% Inhibition of Bone Loss [2, 7]: 60% | % Uterine Weight Gain ([3]; 1 mg/kg): 15%

SMILES: CCCCOC(=O)Oc1ccc(-c2sc3cc(OC(=O)OCCCC)ccc3c2C(=O)c2ccc(OCCN3CCCCC3)cc2)cc1.Cl [Compound 14, 6-(n-Butoxycarbonyloxy)-2-[4(n-butoxycarbonyloxy)phenyl]-benzo[b]thien-3-yl[4-[2-(piperidin-1-yl)ethoxy]phenyl]-methanone Hydrochloride]
% Uterine Weight Gain ([1]; ovex rats, 1 mg/kg oral): 32% | inhibition in vivo at 1 mg/kg [2, 7]: 121%

SMILES: CC/C(=C(\c1ccccc1)c1ccc(OCCN(C)C)cc1)c1ccccc1 [tamoxifen]
Uterine Weight [1, 8]: 216 ± 18 mg | uterine weight, in words ([1]; ovariectomized rats, oral): only modest uterotrophic activity | Bone Density [2, 8]: 204 ± 7 mg/cm/cm | prevention of bone loss (femur density), in words ([2]; ovariectomized rats): displayed the ability to prevent reduction of femur density | Epithelial Height (ovariectomized rats): 2.58 | Myometrial Thickness (ovariectomized rats): 5.50 | Stromal Eosinophils (ovariectomized rats): 2.83 | Stromal Expansion (ovariectomized rats): 14.17 | eosinophil infiltration into the stromal layer of the uterus, in words (ovariectomized rats; ovariectomized rats): caused a significant increase | thickness of the stroma and myometrium, in words (ovariectomized rats; ovariectomized rats): an increase in these measurements that was much less than the effect of estrogen | epithelial height, in words (ovariectomized rats; ovariectomized rats, oral): increased epithelial height equal to that of an intact rat | increase in epithelial height over the response seen with raloxifene (ovariectomized rats; ovariectomized rats, all doses given): six-fold | inhibition of bone loss [6]: has been shown to inhibit bone loss

Further lines, with some results ahead:

% Uterine Weight Gain ([1]; ovex rats, 1 mg/kg oral): 19%
SMILES: CCCC(=O)Oc1ccc(-c2sc3cc(OC(=O)CCC)ccc3c2C(=O)c2ccc(OCCN3CCCCC3)cc2)cc1 [Compound 6, 6-(n-Butanoyloxy)-2-[4-(n-butanoyloxy)phenyl]benzo[b]thien-3-yl-[4-[2-(piperidin-1-yl)ethoxy]phenyl]methanone Hydrochloride]
inhibition in vivo at 1 mg/kg [2, 7]: 24%

% Uterine Weight Gain ([1]; ovex rats, 1 mg/kg oral): 24%
SMILES: CC(C)(C)CC(=O)Oc1ccc(-c2sc3cc(OC(=O)CC(C)(C)C)ccc3c2C(=O)c2ccc(OCCN3CCCCC3)cc2)cc1 [Compound 10, 6-(3,3-Dimethylbutanoyloxy)-2-[4-(3,3-dimethylbutanoyloxy)-phenyl]benzo[b]thien-3-yl-[4-[2-(piperidin-1-yl)ethoxy]-phenyl]methanone Hydrochloride]
inhibition in vivo at 1 mg/kg [2, 7]: 52%

% Uterine Weight Gain ([1]; ovex rats, 1 mg/kg oral): 25%
SMILES: O=C(Oc1ccccc1)Oc1ccc(-c2sc3cc(OC(=O)Oc4ccccc4)ccc3c2C(=O)c2ccc(OCCN3CCCCC3)cc2)cc1 [Compound 16, 6-(Phenyloxycarbonyloxy)-2-[4(phenyloxycarbonyloxy)phenyl]-benzo[b]thien-3-yl[4-[2-(piperidin-1-yl)ethoxy]phenyl]-methanone hydrochloride]
inhibition in vivo at 1 mg/kg [2, 7]: 108%

% Uterine Weight Gain ([1]; ovex rats, 1 mg/kg oral): 17%
SMILES: COCC(=O)Oc1ccc(-c2sc3cc(OC(=O)COC)ccc3c2C(=O)c2ccc(OCCN3CCCCC3)cc2)cc1 [Compound 18, 6-(Methoxyethanoyloxy)-2-[4(methoxyethanoyloxy)phenyl]-benzo[b]thien-3-yl [4-[2-(piperidin-1-yl)ethoxy]phenyl]-methanone]
inhibition in vivo at 1 mg/kg [2, 7]: 21%

uterine weight, in words [3]: approached those of the intact controls
SMILES: C#C[C@]1(O)CC[C@H]2[C@@H]3CCc4cc(O)ccc4[C@H]3CC[C@@]21C [EE2, ethynyl estradiol, reference compound]
Bone Density ([2]; Table 4 Experiment A, ovex rats, EE2 100 μg/kg oral): 202 ± 6 mg/cm/cm | Bone Density ([2]; Table 4 Experiment B, ovex rats, EE2 100 μg/kg oral): 215 ± 11 mg/cm/cm | Bone Density ([2]; Table 5, ovex rats, 100 μg/kg oral): 212 ± 10 mg/cm/cm | prevention of bone loss (femur density), in words ([2]; ovariectomized rats): prevented this loss of bone in a dose dependent manner | Bone Density ([2]; ovex rats, 100 μg/kg oral daily 35 days, five experiments accumulated, mean of thirty rats ± SEM (Table 2)): 210 ± 4 mg/cm/cm | eosinophil infiltration into the stromal layer of the uterus, in words (ovariectomized rats; rat, in vivo): caused a large increase in eosinophil infiltration | epithelial height, in words (ovariectomized rats; rat, in vivo, po): increased epithelial height to a thickness greater than intact rats

Epithelial Height (ovariectomized rats): 1.67 | Myometrial Thickness (ovariectomized rats): 5.42 | Stromal Eosinophils (ovariectomized rats): 1.17 | Stromal Expansion (ovariectomized rats): 14.00 | eosinophil infiltration into the stromal layer of the uterus, in words (ovariectomized rats; ovariectomized rats): did not cause any increase | clearance from the bloodstream [4]: cleared quickly from the bloodstream | parent compound in the serum [4]: not detected | Uterine Weight ([3]; 1 mg/kg): 198 ± 9 mg
SMILES: Cl.O=C(c1ccc(OCCN2CCCCC2)cc1)c1c(-c2ccc(O)cc2)sc2cc(O)ccc12 [raloxifene, 6-hydroxy-2-(4-hydroxyphenyl)-benzo[b]thien-3-yl-4-[2-(piperidin-1-yl)ethoxyphenyl]-methanone hydrochloride]
Bone Density ([2]; Table 4 Experiment B, ovex rats, raloxifene 1 mg/kg alone): 198 ± 11 mg/cm/cm | Bone Density [2, 8]: 207 ± 13 mg/cm/cm | prevention of bone loss (femur density), in words ([2]; ovariectomized rats, hydrochloride): prevented bone loss in a dose dependent manner; also recorded: significantly reduced bone loss; also recorded: displayed the ability to prevent reduction of femur density | effect on the protective effect of estrogen on bone density ([2]; ovariectomized rats, given in combination with ethynyl estradiol): did not appreciably reduce the protective effect of the estrogen on bone density | Bone Density ([2]; ovex rats, 0.01 mg/kg oral, 35 days, five assays combined, thirty rats, mean ± SEM (Table 3)): 176 ± 3 mg/cm/cm | Bone Density ([2]; ovex rats, 0.10 mg/kg oral, 35 days, five assays combined, thirty rats, mean ± SEM (Table 3)): 197 ± 3 mg/cm/cm | Bone Density ([2]; ovex rats, 1.00 mg/kg oral, 35 days, five assays combined, thirty rats, mean ± SEM (Table 3)): 201 ± 3 mg/cm/cm | Bone Density ([2]; ovex rats, 10.00 mg/kg oral, 35 days, five assays combined, thirty rats, mean ± SEM (Table 3)): 199 ± 3 mg/cm/cm | thickness of the stroma and myometrium, in words (ovariectomized rats; ovariectomized rats): an increase in these measurements that was much less than the effect of estrogen | total score of estrogenicity (compilation of all four parameters) (ovariectomized rats; ovariectomized rats): significantly less estrogenic than tamoxifen | epithelial height, in words (ovariectomized rats; ovariectomized rats, oral): only at one dose was there any statistically measurable increase in epithelial height over the ovariectomized controls | conjugation following oral administration [4]: extensively conjugated to the glucuronidated form | inhibition of the normal uterotrophic response to estradiol [5]: maximally active | inhibition of uterine uptake of tritiated-estradiol [5]: maximally active
